Assay results from patent US11420958B2, “Aryl and heteroaryl substituted indole compounds” (BRISTOL-MYERS SQUIBB COMPANY, priority 2017, dated 2022).

Tests used:
Format in all cases: cell-based
human TLR8 = human TLR8 (Homo sapiens (Human), UniProt Q9NR97); test: TLR8 inhibition reporter assay (HEK-Blue, SEAP); conditions: HEK-Blue cells overexpressing human TLR8, R848 15.9 μM stimulation
In short: (§1)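 Percent inhibition of agonist-induced SEAP secretion was scored against DMSO-only and reference-inhibitor controls. Stimulation lasted 22 h at 37 °C following 30 min compound pre-exposure (0.05 nM–50 μM); ligands were gardiquimod 7.5 μM, R848 15.9 μM and ODN2006 5 nM for TLR7, 8 and 9.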

human TLR7 = human TLR7 (Homo sapiens (Human), UniProt Q9NYK1); test: TLR7 inhibition reporter assay (HEK-Blue, SEAP); conditions: HEK-Blue cells overexpressing human TLR7, gardiquimod 7.5 μM stimulation
Sequence of human TLR7 (Q9NYK1 27-1049): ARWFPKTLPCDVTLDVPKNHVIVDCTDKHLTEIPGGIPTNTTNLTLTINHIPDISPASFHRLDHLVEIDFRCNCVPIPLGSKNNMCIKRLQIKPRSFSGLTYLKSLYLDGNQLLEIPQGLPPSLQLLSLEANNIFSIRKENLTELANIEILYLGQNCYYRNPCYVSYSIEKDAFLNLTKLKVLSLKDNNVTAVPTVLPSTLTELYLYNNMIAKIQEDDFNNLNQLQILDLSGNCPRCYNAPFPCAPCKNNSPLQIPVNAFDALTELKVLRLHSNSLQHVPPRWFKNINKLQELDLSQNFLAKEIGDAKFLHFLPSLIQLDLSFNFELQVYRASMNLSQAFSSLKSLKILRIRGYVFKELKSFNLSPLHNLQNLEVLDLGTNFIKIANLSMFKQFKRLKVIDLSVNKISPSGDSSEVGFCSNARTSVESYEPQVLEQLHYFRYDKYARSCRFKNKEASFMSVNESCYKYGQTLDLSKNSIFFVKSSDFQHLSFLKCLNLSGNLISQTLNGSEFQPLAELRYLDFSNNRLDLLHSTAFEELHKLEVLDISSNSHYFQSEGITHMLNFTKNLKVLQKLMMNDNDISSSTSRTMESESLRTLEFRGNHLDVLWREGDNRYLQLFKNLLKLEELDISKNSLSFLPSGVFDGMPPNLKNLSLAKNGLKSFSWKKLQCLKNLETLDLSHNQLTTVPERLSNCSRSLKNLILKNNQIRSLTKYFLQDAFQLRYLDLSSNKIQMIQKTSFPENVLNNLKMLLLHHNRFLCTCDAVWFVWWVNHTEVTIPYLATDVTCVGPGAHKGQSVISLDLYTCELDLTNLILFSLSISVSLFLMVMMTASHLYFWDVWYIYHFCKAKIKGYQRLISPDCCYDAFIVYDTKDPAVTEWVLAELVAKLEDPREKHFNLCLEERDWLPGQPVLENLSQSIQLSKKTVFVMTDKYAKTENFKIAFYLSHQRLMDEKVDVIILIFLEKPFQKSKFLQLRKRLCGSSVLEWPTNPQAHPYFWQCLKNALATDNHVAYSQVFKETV
In short: as §1

human TLR9 = human TLR9 (Homo sapiens (Human), UniProt Q9NR96); test: TLR9 inhibition reporter assay (HEK-Blue, SEAP); conditions: HEK-Blue cells overexpressing human TLR9, ODN2006 5 nM stimulation
Sequence of human TLR9 (Q9NR96 26-1032): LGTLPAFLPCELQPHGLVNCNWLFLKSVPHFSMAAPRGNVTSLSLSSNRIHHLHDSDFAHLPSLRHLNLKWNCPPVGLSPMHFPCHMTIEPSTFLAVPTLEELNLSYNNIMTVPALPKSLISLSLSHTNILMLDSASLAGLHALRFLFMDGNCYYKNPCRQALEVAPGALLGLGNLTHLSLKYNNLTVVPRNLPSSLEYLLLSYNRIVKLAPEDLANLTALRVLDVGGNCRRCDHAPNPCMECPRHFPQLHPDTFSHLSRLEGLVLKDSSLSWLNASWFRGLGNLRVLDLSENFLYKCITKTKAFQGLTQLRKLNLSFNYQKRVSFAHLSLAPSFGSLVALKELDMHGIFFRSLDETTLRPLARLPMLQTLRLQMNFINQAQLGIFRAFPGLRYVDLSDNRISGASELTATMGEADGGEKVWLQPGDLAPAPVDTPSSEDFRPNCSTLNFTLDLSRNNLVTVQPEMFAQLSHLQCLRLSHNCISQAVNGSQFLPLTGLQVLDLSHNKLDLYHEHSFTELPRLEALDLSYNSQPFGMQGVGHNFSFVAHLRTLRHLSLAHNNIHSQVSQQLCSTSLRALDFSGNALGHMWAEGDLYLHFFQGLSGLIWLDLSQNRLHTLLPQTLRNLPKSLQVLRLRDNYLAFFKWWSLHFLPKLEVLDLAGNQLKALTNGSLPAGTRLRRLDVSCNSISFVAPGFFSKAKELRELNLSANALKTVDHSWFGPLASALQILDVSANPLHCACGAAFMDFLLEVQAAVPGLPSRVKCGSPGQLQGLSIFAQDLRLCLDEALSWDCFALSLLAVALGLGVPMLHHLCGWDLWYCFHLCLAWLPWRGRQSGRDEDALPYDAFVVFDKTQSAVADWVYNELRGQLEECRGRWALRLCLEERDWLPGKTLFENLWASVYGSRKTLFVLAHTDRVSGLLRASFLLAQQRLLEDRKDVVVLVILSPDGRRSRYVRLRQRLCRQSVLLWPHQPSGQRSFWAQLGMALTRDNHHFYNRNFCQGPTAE
In short: as §1

Sequence of human TLR8 (Q9NR97 27-1041): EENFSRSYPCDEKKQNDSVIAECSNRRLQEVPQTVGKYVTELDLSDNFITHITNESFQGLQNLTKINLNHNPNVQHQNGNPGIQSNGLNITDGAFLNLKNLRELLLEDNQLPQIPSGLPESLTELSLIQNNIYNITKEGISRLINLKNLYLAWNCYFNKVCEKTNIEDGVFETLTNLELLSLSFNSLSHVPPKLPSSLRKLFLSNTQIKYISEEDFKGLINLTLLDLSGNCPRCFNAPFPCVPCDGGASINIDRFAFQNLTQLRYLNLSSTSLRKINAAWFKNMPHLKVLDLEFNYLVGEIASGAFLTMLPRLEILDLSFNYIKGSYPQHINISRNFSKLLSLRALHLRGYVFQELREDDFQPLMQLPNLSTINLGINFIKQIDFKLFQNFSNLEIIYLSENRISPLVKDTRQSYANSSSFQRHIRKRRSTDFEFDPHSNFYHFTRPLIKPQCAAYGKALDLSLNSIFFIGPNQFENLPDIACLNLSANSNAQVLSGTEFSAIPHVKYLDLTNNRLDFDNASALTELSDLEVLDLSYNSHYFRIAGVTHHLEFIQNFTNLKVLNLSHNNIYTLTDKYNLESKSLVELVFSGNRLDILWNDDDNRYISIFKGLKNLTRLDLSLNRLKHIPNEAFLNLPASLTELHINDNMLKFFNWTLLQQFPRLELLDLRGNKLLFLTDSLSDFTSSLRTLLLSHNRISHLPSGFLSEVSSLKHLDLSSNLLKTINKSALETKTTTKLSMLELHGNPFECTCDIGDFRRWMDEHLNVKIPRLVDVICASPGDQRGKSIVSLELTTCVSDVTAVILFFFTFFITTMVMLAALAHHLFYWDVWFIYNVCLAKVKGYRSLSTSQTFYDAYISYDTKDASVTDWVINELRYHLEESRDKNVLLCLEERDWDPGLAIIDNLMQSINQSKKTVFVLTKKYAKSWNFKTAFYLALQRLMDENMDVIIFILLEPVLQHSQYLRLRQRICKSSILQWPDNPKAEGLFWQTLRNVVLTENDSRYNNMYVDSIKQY

| SMILES | IC50 (human TLR8) | IC50 (human TLR7) | IC50 (human TLR9) |
| --- | --- | --- | --- |
| COc1ccc(-c2[nH]c3ccc(-c4ccc(C5=CCN(C)CC5)cc4)cc3c2C)cc1OC [Example 376, 2-(3,4-dimethoxyphenyl)-3-methyl-5-(4-(1-methyl-1,2,3,6-tetrahydropyridin-4-yl)phenyl)-1H-indole] | 0.487 µM | 2.88 µM | 2.41 µM |
| COc1ccc(-c2[nH]c3ccc(-c4ccc(C5=CC(C)(C)NC(C)(C)C5)cc4)cc3c2C(C)C)cc1OC [Example 377, 2-(3,4-dimethoxyphenyl)-3-isopropyl-5-(4-(2,2,6,6-tetramethyl-1,2,3,6-tetrahydropyridin-4-yl)phenyl)-1H-indole] | 0.34 µM | 0.9 µM | 4.77 µM |
| COc1ccc(-c2[nH]c3ccc(-c4ccc(N5CCCN(CCO)CC5)cc4)cc3c2C(C)C)cc1OC [Example 379, 2-(4-(4-(2-(3,4-dimethoxyphenyl)-3-isopropyl-1H-indol-5-yl)phenyl)-1,4-diazepan-1-yl)ethan-1-ol] | 0.071 µM | 0.692 µM | 2.95 µM |
| COc1ccc(-c2[nH]c3ccc(-c4ccc(N5CCCN(C)CC5)cc4)cc3c2C(C)C)cc1OC [Example 380, 2-(3,4-dimethoxyphenyl)-3-isopropyl-5-(4-(4-methyl-1,4-diazepan-1-yl)phenyl)-1H-indole] | 0.035 µM | 0.881 µM | 2.92 µM |
| CCc1c(-c2ccc(OC)c(OC)c2)[nH]c2ccc(-c3ccc(N4CCN(C)CC4)cc3)cc12 [Example 381, 2-(3,4-dimethoxyphenyl)-3-ethyl-5-(4-(4-methylpiperazin-1-yl)phenyl)-1H-indole] | 22.6 µM | 0.517 µM | 46.6 µM |
| COc1ccc(-c2[nH]c3ccc(-c4ccc(N5CCN(C(C)C)CC5)cc4)cc3c2C(C)C)cc1OC [Example 382, 2-(3,4-dimethoxyphenyl)-3-isopropyl-5-(4-(4-isopropylpiperazin-1-yl)phenyl)-1H-indole] | 0.032 µM | 0.157 µM | 0.917 µM |
| COc1ccc(-c2[nH]c3ccc(-c4ccc(N5CCN[C@H](C)C5)cc4)cc3c2C(C)C)cc1OC [Example 383, (R)-2-(3,4-dimethoxyphenyl)-3-isopropyl-5-(4-(3-methylpiperazin-1-yl)phenyl)-1H-indole] | 0.045 µM | 0.136 µM | 4.63 µM |
| CCc1c(-c2ccnc3[nH]ncc23)[nH]c2ccc(-c3ccc(N4CCN(C)CC4)cc3)cc12 [Example 384, 4-(3-ethyl-5-(4-(4-methylpiperazin-1-yl)phenyl)-1H-indol-2-yl)-1H-pyrazolo[3,4-b]pyridine] | 0.012 µM | 0.145 µM | 1.95 µM |
| COc1ccc(-c2[nH]c3ccc(-c4ccc(NC5CCN(C(C)C)CC5)cc4)cc3c2C(C)C)cc1OC [Example 385, N-(4-(2-(3,4-dimethoxyphenyl)-3-isopropyl-1H-indol-5-yl)phenyl)-1-isopropylpiperidin-4-amine] | 0.03 µM | 0.181 µM | 5.89 µM |
| COc1ccc(-c2[nH]c3ccc(-c4ccc(NCC5CCN(C)C5)cc4)cc3c2C(C)C)cc1OC (stereo not drawn) [Example 386, 4-(2-(3,4-dimethoxyphenyl)-3-isopropyl-1H-indol-5-yl)-N-((1-methylpyrrolidin-3-yl)methyl)aniline] | 0.0096 µM | 0.169 µM | 3.71 µM |
| COc1ccc(-c2[nH]c3ccc(-c4ccc(OC5CCN(C)CC5)cc4)cc3c2C(C)C)cc1OC [Example 387, 2-(3,4-dimethoxyphenyl)-3-isopropyl-5-(4-((1-methylpiperidin-4-yl)oxy)phenyl)-1H-indole] | 0.022 µM | 0.034 µM | 3.9 µM |
| COc1ccc(-c2[nH]c3ccc(-c4ccc(OC5CCN(CC(C)C)CC5)cc4)cc3c2C(C)C)cc1OC [Example 388, 2-(3,4-dimethoxyphenyl)-5-(4-((1-isobutylpiperidin-4-yl)oxy)phenyl)-3-isopropyl-1H-indole] | 0.349 µM | 0.636 µM | > 50 µM |
| COc1ccc(-c2[nH]c3ccc(-c4ccc(OC5CCN(C(C)C)CC5)cc4)cc3c2C(C)C)cc1OC [Example 389, 2-(3,4-dimethoxyphenyl)-3-isopropyl-5-(4-((1-isopropylpiperidin-4-yl)oxy)phenyl)-1H-indole] | 0.126 µM | 0.338 µM | 2.36 µM |
| COc1ccc(-c2[nH]c3ccc(-c4ccc(N5CCN(C(C)=O)CC5)nc4)cc3c2C(C)C)cc1OC [Example 390, 1-(4-(5-(2-(3,4-dimethoxyphenyl)-3-isopropyl-1H-indol-5-yl)pyridin-2-yl)piperazin-1-yl)ethan-1-one] | 0.044 µM | 0.969 µM | > 50 µM |

Continued, values first:

| IC50 (human TLR8) | IC50 (human TLR7) | IC50 (human TLR9) | SMILES |
| --- | --- | --- | --- |
| 0.0075 µM | 0.032 µM | 1.07 µM | COc1ccc(-c2[nH]c3ccc(-c4ccc(N5CCN(C)CC5)nc4)cc3c2C(C)C)cc1OC [Example 392, 2-(3,4-dimethoxyphenyl)-3-isopropyl-5-(6-(4-methylpiperazin-1-yl)pyridin-3-yl)-1H-indole] |
| 0.011 µM | 0.06 µM | 0.666 µM | COc1ccc(-c2[nH]c3ccc(-c4ccc(N5CCN(C(C)C)CC5)nc4)cc3c2C(C)C)cc1OC [Example 393, 2-(3,4-dimethoxyphenyl)-3-isopropyl-5-(6-(4-isopropylpiperazin-1-yl)pyridin-3-yl)-1H-indole] |
| 0.218 µM | 0.919 µM | > 50 µM | CC(C)c1c(-c2ccnc3[nH]ncc23)[nH]c2ccc(-c3ccc4[nH]c(=O)cc(O)c4c3)cc12 [Example 394, 4-hydroxy-6-(3-isopropyl-2-(1H-pyrazolo[3,4-b]pyridin-4-yl)-1H-indol-5-yl)quinolin-2(1H)-one] |
| 0.111 µM | 0.486 µM | 44 µM | CC(C)c1c(-c2ccnc3[nH]ncc23)[nH]c2ccc(-c3ccc4c(cnn4C)c3)cc12 [Example 395, 4-(3-isopropyl-5-(1-methyl-1H-indazol-5-yl)-1H-indol-2-yl)-1H-pyrazolo[3,4-b]pyridine] |
| 0.519 µM | 2.31 µM | > 50 µM | COc1ccc(-c2[nH]c3ccc(-c4cccc(-c5cccc(CN6CCOCC6)c5)c4)cc3c2C(C)C)cc1OC [Example 396, 4-((3′-(2-(3,4-dimethoxyphenyl)-3-isopropyl-1H-indol-5-yl)-[1,1′-biphenyl]-3-yl)methyl)morpholine] |
| 0.101 µM | 3.3 µM | 4.12 µM | COc1ccc(-c2[nH]c3ccc(-c4cccc(-c5cccc(CN(C)C)c5)c4)cc3c2C(C)C)cc1OC [Example 397, 1-(3′-(2-(3,4-dimethoxyphenyl)-3-isopropyl-1H-indol-5-yl)-[1,1′-biphenyl]-3-yl)-N,N-dimethylmethanamine] |
| 2.12 µM | 0.559 µM | 2.55 µM | COc1ccc(-c2[nH]c3ccc(-c4ccc(CCCN5CCOCC5)cc4)cc3c2C(C)C)cc1OC [Example 398, 4-(3-(4-(2-(3,4-dimethoxyphenyl)-3-isopropyl-1H-indol-5-yl)phenyl)propyl)morpholine] |
| 0.028 µM | 0.947 µM | 0.721 µM | CCc1c(-c2ccc(OC)c(OC)c2)[nH]c2ccc(-c3ccc(N4CCNCC4)cc3)cc12 [Example 399, 2-(3,4-dimethoxyphenyl)-3-ethyl-5-(4-(piperazin-1-yl)phenyl)-1H-indole] |
| 0.035 µM | 0.165 µM | 2.66 µM | COc1ccc(-c2[nH]c3ccc(-c4ccc(NCCCN(C)C)cc4)cc3c2C(C)C)cc1OC [Example 400, N1-(4-(2-(3,4-dimethoxyphenyl)-3-isopropyl-1H-indol-5-yl)phenyl)-N3,N3-dimethylpropane-1,3-diamine] |
| 0.077 µM | 0.541 µM | 43.3 µM | COc1ccc(-c2[nH]c3ccc(-c4ccc(NCCN5CCOCC5)cc4)cc3c2C(C)C)cc1OC [Example 401, 4-(2-(3,4-dimethoxyphenyl)-3-isopropyl-1H-indol-5-yl)-N-(2-morpholinoethyl)aniline] |
| 0.021 µM | 0.2 µM | 2.32 µM | COc1ccc(-c2[nH]c3ccc(-c4ccc(NC5CCCNC5)cc4)cc3c2C(C)C)cc1OC (stereo not drawn) [Example 402, N-(4-(2-(3,4-dimethoxyphenyl)-3-isopropyl-1H-indol-5-yl)phenyl)piperidin-3-amine] |
| 0.312 µM | 0.57 µM | > 50 µM | COc1ccc(-c2[nH]c3ccc(-c4ccc(N5CCN(C6CCCC6)CC5)cc4)cc3c2C(C)C)cc1OC [Example 403, 5-(4-(4-cyclopentylpiperazin-1-yl)phenyl)-2-(3,4-dimethoxyphenyl)-3-isopropyl-1H-indole] |
| 0.038 µM | 0.246 µM | 9.68 µM | CNCCNc1ccc(-c2ccc3[nH]c(-c4ccc(OC)c(OC)c4)c(C(C)C)c3c2)cc1 [Example 404, N1-(4-(2-(3,4-dimethoxyphenyl)-3-isopropyl-1H-indol-5-yl)phenyl)-N2-methylethane-1,2-diamine] |
| 0.464 µM | 1.56 µM | > 50 µM | COc1ccc(-c2[nH]c3ccc(-c4ccc(N5CCC(c6ccncc6)CC5)cc4)cc3c2C(C)C)cc1OC [Example 405, 2-(3,4-dimethoxyphenyl)-3-isopropyl-5-(4-(4-(pyridin-4-yl)piperidin-1-yl)phenyl)-1H-indole] |
| 2.22 µM | 2.61 µM | > 50 µM | COc1ccc(-c2[nH]c3ccc(-c4ccc(-c5cccnc5)cc4)cc3c2C(C)C)cc1OC [Example 406, 2-(3,4-dimethoxyphenyl)-3-isopropyl-5-(4-(pyridin-3-yl)phenyl)-1H-indole] |
